Reference: ChEMBL document CHEMBL1158419, “3D-QSAR study of 8-azabicyclo[3.2.1] octane analogs antagonists of cholinergic receptor” (Bioorg Med Chem Lett, 2009)

assay: Antagonist activity at muscarinic receptor; type: functional

In order of rising pKi:
1. CN1[C@@H]2CC[C@H]1C[C@@H](OC(c1ccccc1)c1ccccc1)C2 [BENZTROPINE]  0.33
2. CN1C2CC[C@@H]1C[C@H](OC(c1ccc(F)cc1)c1ccc(F)cc1)C2 (single isomer, unassigned)  1.06
3. C=CCN1C2CC[C@@H]1C[C@H](OC(c1ccc(F)cc1)c1ccc(F)cc1)C2 (single isomer, unassigned)  2.25
4. CCCCN1C2CC[C@@H]1C[C@H](OC(c1ccc(F)cc1)c1ccc(F)cc1)C2 (single isomer, unassigned)  2.6
5. Fc1ccc(C(O[C@@H]2CC3CC[C@H](C2)N3Cc2ccccc2)c2ccc(F)cc2)cc1 (single isomer, unassigned)  3.01
6. COC(=O)[C@H]1[C@@H](OC(=O)c2ccccc2)C[C@@H]2CC[C@H]1N2C [COCAINE]  4.79
7. C[N+]1(C)[C@@H]2CC[C@H]1C[C@@H](OC(=O)CCC(C(=O)O[C@@H]1C[C@H]3CC[C@@H](C1)[N+]3(C)C)c1ccccc1)C2 (some centres not stated)  6.5
8. CN1[C@@H]2C[C@@H](OC(=O)C(c3ccccc3)C3CCCC3)C[C@H]1[C@@H]1O[C@@H]12 (some centres not stated)  7.14
9. C[N+]1(C)C2CCC1CC(OC(=O)C(CC(=O)O[C@H]1C[C@H]3CC[C@@H](C1)[N+]3(C)C)c1ccccc1)C2 (some centres not stated)  7.18
10. C[S+]([O-])COC(=O)C(O[C@@H]1CC2CC[C@H](C1)[N+]2(C)C)c1ccccc1 (single isomer, unassigned)  7.25
11. COC(=O)C(C(=O)O[C@@H]1C[C@@H]2[C@H]3O[C@H]3[C@H](C1)[N+]2(C)C)(c1ccccc1)C1CCCC1 (some centres not stated)  7.28
12. CCCCCCOC(=O)C(C(=O)O[C@@H]1C[C@@H]2[C@H]3O[C@H]3[C@H](C1)[N+]2(C)C)c1ccccc1 (some centres not stated)  7.33
13. CCOC(=O)C(C(=O)O[C@@H]1C[C@@H]2[C@H]3O[C@H]3[C@H](C1)[N+]2(C)C)(c1ccccc1)C1CCCC1 (some centres not stated)  7.98
14. C[N+]1(C)[C@@H]2C[C@@H](OC(=O)C(C(=O)OC3CCCCC3)c3ccccc3)C[C@H]1[C@@H]1O[C@@H]12 (some centres not stated)  8.01
15. CCOC(=O)C(C(=O)O[C@@H]1CC2[C@H]3O[C@H]3[C@H](C1)[N+]2(C)C)c1ccccc1 (single isomer, unassigned)  8.32
16. CN1[C@@H]2C[C@@H](OC(=O)[C@H](CO)c3ccccc3)C[C@H]1[C@@H]1O[C@@H]12 [SCOPOLAMINE]  8.95
17. CN1[C@@H]2CC[C@H]1C[C@@H](OC(=O)C(CO)c1ccccc1)C2 (some centres not stated) [ATROPINE]  9.34
